Consider six compounds from PMC9881673, “Investigating the potential anticancer activities of antibiotics as topoisomerase II inhibitors and DNA intercalators: in vitro, molecular docking, molecular dynamics, and SAR studies” (Journal of Enzyme Inhibition and Medicinal Chemistry, 2023).

Data set [1] is described as follows: MTT antiproliferative assay, HCT-116. The format is cell-based. As to conditions: human, HCT-116 colorectal carcinoma cells, HCT-116, MTT, read-out: IC50 (cytotoxicity). Here is the method:
(§1) DOX was used as standard (920 µM).

Data set [2] in a line: MTT antiproliferative assay, HepG-2. Type of data set: cell-based. The note with it: human, HepG-2 hepatocellular carcinoma cells, HepG-2, MTT, read-out: IC50 (cytotoxicity). How it is done: as §1
In a further data set the target is T1, TOP-2 enzyme (Homo sapiens, UniProt P11388).
T1 construct: purchased TOPOGEN, CO, USA TG1001
T1 sequence (P11388 whole entry): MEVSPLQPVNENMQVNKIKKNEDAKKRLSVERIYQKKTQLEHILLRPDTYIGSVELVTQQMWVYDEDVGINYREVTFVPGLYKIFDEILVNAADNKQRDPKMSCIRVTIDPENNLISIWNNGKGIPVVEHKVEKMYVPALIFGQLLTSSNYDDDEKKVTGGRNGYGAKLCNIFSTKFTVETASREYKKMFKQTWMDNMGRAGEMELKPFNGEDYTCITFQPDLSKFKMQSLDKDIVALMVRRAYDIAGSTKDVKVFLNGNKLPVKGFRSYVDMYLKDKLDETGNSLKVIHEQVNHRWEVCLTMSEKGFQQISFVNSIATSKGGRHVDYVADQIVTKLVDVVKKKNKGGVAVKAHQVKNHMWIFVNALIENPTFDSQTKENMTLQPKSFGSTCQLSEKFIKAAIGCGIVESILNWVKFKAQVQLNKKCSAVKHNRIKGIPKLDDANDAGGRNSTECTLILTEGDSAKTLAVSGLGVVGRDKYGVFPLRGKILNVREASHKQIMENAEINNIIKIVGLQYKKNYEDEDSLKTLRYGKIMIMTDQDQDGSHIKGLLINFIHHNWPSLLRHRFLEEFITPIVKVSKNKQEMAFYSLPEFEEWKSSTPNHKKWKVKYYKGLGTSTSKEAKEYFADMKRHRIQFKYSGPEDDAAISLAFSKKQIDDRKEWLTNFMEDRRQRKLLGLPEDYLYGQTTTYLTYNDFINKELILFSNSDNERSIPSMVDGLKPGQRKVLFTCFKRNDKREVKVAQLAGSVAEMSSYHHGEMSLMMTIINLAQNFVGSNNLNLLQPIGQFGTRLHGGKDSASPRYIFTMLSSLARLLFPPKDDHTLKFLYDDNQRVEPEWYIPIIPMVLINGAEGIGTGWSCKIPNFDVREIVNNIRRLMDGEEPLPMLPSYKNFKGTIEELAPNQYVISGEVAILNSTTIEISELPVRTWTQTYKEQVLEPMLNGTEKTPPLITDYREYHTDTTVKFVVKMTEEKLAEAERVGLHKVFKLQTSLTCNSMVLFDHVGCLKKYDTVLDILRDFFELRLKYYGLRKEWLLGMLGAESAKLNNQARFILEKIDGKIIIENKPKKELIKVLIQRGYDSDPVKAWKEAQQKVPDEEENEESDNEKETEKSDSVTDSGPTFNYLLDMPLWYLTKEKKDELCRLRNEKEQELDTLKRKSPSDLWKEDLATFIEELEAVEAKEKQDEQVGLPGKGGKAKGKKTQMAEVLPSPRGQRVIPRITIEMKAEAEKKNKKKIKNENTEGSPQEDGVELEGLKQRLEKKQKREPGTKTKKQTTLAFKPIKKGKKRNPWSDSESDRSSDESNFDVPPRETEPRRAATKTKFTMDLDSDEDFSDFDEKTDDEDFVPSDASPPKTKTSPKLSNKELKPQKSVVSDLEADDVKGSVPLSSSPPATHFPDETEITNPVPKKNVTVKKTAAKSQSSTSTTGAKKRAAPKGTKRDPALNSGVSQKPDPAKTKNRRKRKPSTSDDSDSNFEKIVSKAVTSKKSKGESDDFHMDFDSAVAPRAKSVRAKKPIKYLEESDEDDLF
Kind of data set: Topoisomerase II inhibitory assay (TopoGEN plasmid-based kit, DNA decatenation). Type of data set: biochemical. As to conditions: decatenation of DNA by TOP-2; read-out: IC50 (TOP-2 inhibition). How it is done: SP, RO, AZ, CL, and ER (as ethyl succinate) were provided from NODQCAR at a purity > 99.87%. Human mammary tumours, hepatocellular carcinoma (HepG2), and colorectal cancer (HCT-116) cell lines were obtained from VACSERA; Egypt. RPMI 1640 doped with 10% FBS was provided from VACSERA; Egypt. The inhibitory potential against TOP-2 was assessed by the Topo GEN assay kit (TOPOGEN, CO, USA).
Results were reported as IC50 and compared to DOX.

A short description of the next data set: in vitro. The note with it: human, MCF-7 breast cancer cells.

`COc1cccc2c1C(=O)c1c(O)c3c(c(O)c1C2=O)C[C@@](O)(C(=O)CO)C[C@@H]3O[C@H]1C[C@H](N)[C@H](O)[C@H](C)O1` [DOX, doxorubicin]: the IC50 at 24 h in data set [1] turned out to be 1.6 ± 0.05 µM; in data set [2], 3.6 ± 0.07 µM; in “in vitro” it was 0.49 ± 0.1 µM. In addition, the 50% inhibitory concentration (IC50) at TOP-2 enzyme worked out at 6.37 ± 0.38 µM.
Taken in the same sequence, the figures for `CC[C@H]1OC(=O)[C@H](C)[C@@H](O[C@H]2C[C@@](C)(OC)[C@@H](O)[C@H](C)O2)[C@H](C)[C@@H](O[C@@H]2O[C@H](C)C[C@H](N(C)C)[C@H]2O)[C@](C)(O)C[C@@H](C)/C(=N\OCOCCOC)[C@H](C)[C@@H](O)[C@]1(C)O` [RO, roxithromycin] were 0.097 ± 0.024 µM, 32 ± 0.18 µM, 7.9 ± 0.79 µM and 13.1 ± 0.77 µM.
In the case of `CC[C@H]1OC(=O)[C@H](C)[C@@H](O[C@H]2C[C@@](C)(OC)[C@@H](O)[C@H](C)O2)[C@H](C)[C@@H](O[C@@H]2O[C@H](C)C[C@H](N(C)C)[C@H]2O)[C@](C)(O)C[C@@H](C)CN(C)[C@H](C)[C@@H](O)[C@]1(C)O` [AZ, azithromycin], the half-inhibitory concentration (IC50) at 24 h came to 2.08 ± 0.05 µM in data set [1] and 32 ± 0.18 µM in data set [2]. Besides, at TOP-2 enzyme, the IC50 amounted to 36.1 ± 2.11 µM.
Regarding `COC1C(O)CC(=O)OC(C)CC=CC=CC(OC2CCC(N(C)C)C(C)O2)C(C)CC(CC=O)C1OC1OC(C)C(OC2CC(C)(O)C(O)C(C)O2)C(N(C)C)C1O` (centres unmarked) [SP, spiramycin], the IC50 at 24 h in data set [1] worked out at 12.2 ± 3.27 µM; in data set [2], 20.9 ± 1.33 µM; in “in vitro”, 0.67 ± 0.43 µM. The half-maximal inhibitory concentration (IC50) on TOP-2 enzyme stood at 21.2 ± 1.19 µM.
Taken in the same sequence, the figures for `CC[C@H]1OC(=O)[C@H](C)[C@@H](O[C@H]2C[C@@](C)(OC)[C@@H](O)[C@H](C)O2)[C@H](C)[C@@H](O[C@@H]2O[C@H](C)C[C@H](N(C)C)[C@H]2O)[C@](C)(OC)C[C@@H](C)C(=O)[C@H](C)[C@@H](O)[C@]1(C)O` [CL, clarithromycin] were 2.74 ± 0.42 µM, 14.8 ± 0.15 µM, 1.39 ± 0.15 µM and 25.6 ± 1.08 µM.
Turning to `CC[C@H]1OC(=O)[C@H](C)[C@@H](O[C@H]2C[C@@](C)(OC)[C@@H](O)[C@H](C)O2)[C@H](C)[C@@H](O[C@@H]2O[C@H](C)C[C@H](N(C)C)[C@H]2O)[C@](C)(O)C[C@@H](C)C(=O)[C@H](C)[C@@H](O)[C@]1(C)O` [ER, erythromycin], the 50% inhibitory concentration (IC50) at TOP-2 enzyme is 11.6 ± 0.7 µM.
